{"source": "PubChem BioAssay AID493250", "about": "(Broad Institute, 2011)", "note": "The source made the active and inactive calls.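 Rule for the calls: active = signal decrease with fitted half-maximal dose at or below ten times the highest valid tested dose; inconclusive = poor fit, or flat fit at 30 to 70% inhibition; inactive = the rest.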"}
{"biological_target": "Zinc finger protein mex-5 (Caenorhabditis elegans) (UniProt Q9XUB2)", "sequence (Q9XUB2 whole entry, looked up)": "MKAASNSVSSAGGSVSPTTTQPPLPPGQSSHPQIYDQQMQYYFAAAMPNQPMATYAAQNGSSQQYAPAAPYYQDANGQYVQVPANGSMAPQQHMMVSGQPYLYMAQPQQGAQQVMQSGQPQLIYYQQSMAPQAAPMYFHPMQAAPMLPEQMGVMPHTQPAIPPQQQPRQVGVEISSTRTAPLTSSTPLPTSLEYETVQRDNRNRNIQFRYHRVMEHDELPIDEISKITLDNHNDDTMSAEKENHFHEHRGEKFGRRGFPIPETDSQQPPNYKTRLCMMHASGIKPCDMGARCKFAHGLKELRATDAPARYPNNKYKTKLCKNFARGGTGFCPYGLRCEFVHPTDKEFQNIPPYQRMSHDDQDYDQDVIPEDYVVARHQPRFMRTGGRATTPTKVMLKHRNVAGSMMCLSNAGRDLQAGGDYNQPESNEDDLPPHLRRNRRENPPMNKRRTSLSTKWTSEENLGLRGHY", "assay": "inhibitors of MEX-5 RNA binding, dose response, biochemical, fluorescence polarization, C. elegans, cherry-picked, round 3 (AID 493250);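 for activity change, negative = inhibition: 0% = DMSO neutral control and -100% = 5 µM unlabeled TCR2 competitor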", "details": "purified MEX-5-MBP, FITC-TCR2 RNA fluorescence polarization", "units": {"AC50": "µM"}}
{"smiles": "Cn1c(O)c(N=Nc2ccc(F)cc2)c2ccccc21", "AC50": 1.75}
{"smiles": "O=C1C(Br)=Cc2cccc3cccc1c23", "AC50": 3.06}
{"smiles": "Cc1cc2c(C)nc(N/N=C/c3ccc([N+](=O)[O-])cc3)nc2o1", "AC50": 6.83}
{"smiles": "Cc1nc2nc(-c3ccc(Cl)cc3)cn2nc1C", "AC50": 9.89}
{"smiles": "COC(=O)c1ccc2c(c1)SC1=C(CCCC1=O)N2", "AC50": 5.95}
{"smiles": "COc1ccc(Cl)cc1CN1CCN(c2nc(C)cc(C)c2C#N)CC1", "AC50": 9.41}
{"biological_target": "Zinc finger protein mex-5 (Caenorhabditis elegans) (UniProt Q9XUB2)", "assay": "inhibitors of MEX-5 RNA binding, dose response, biochemical, fluorescence polarization, C. elegans, cherry-picked, round 3 (AID 493250);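 for activity change, negative = inhibition: 0% = DMSO neutral control and -100% = 5 µM unlabeled TCR2 competitor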", "details": "purified MEX-5-MBP, FITC-TCR2 RNA fluorescence polarization; at 10 µM (top of the series)"}
{"smiles": "CCOc1ccccc1N=NC1C(=O)N(C(N)=S)N=C1C", "note": "(centres undefined)", "activity change, negative = inhibition": "inactive"}
{"smiles": "O=C1SC(SCc2ccccc2)=N/C1=C\\c1ccc(C(=O)O)cc1", "activity change, negative = inhibition": "inactive"}
{"smiles": "O=C(O)c1cc(Oc2ccc(C(F)(F)F)cc2Cl)ccc1[N+](=O)[O-]", "activity change, negative = inhibition": "inactive"}
{"smiles": "Nc1c(C(=O)Nc2ccccc2)sc2nc3c(c(-c4ccco4)c12)CCC3", "activity change, negative = inhibition": "inactive"}
{"smiles": "C=CCn1c(Cc2nc3ccc(Cl)cc3[nH]2)n[nH]c1=S", "activity change, negative = inhibition": "inactive"}
{"smiles": "Cc1ccc2c(c1)-c1ccccc1S(=O)(=O)N2", "activity change, negative = inhibition": "inactive"}
{"smiles": "Cc1cc(C)c2ccc(=S)[nH]c2n1", "activity change, negative = inhibition": "inactive"}
{"smiles": "Cc1nn(C(C)C(=O)NNC(=S)Nc2ccc(Cl)cc2)c(C)c1[N+](=O)[O-]", "note": "(centres undefined)", "activity change, negative = inhibition": "inactive"}
{"smiles": "Cc1c(O)ccc(-c2[nH]ncc2-c2nc3ccccc3s2)c1O", "activity change, negative = inhibition": "inactive"}
{"smiles": "Cc1cccc(-n2c(N)c(-c3nc4ccccc4n3C)c3nc4ccccc4nc32)c1", "activity change, negative = inhibition": "inactive"}
{"smiles": "COc1ccc2nc3ccccc3nc2c1N", "activity change, negative = inhibition": "inactive"}
{"smiles": "COc1ccc(-c2cn[nH]c2-c2ccc(OCC(=O)NN)cc2O)cc1", "activity change, negative = inhibition": "inactive"}
{"smiles": "O=C1/C(=C\\c2ccc(Br)o2)Cc2ccccc21", "activity change, negative = inhibition": "inactive"}
{"smiles": "Cc1nc2cc(C(=O)O)ccc2n1-c1ccc(F)cc1F", "activity change, negative = inhibition": "inactive"}
{"smiles": "COCCNC(=S)N/N=C/c1c2ccccc2cc2ccccc12", "activity change, negative = inhibition": "inactive"}
{"smiles": "Cc1cccc(C(=O)NNc2ncnc3c2cnn3C)c1", "activity change, negative = inhibition": "inactive"}
{"smiles": "Nc1c(C(=O)Nc2cccc(Cl)c2Cl)sc2nc(-c3cccnc3)ccc12", "activity change, negative = inhibition": "inactive"}
{"smiles": "O=C(O)CC1S/C(=N/N=C/c2ccc(-c3ccccc3[N+](=O)[O-])o2)NC1=O", "note": "(centres undefined)", "activity change, negative = inhibition": "inactive"}
{"smiles": "CCN(CC)c1ccc(N=Cc2c(O)n(-c3ccccc3C)c(=O)[nH]c2=O)cc1", "activity change, negative = inhibition": "inactive"}
{"smiles": "COc1ccc(N(CCC#N)C(=O)/C(C#N)=C\\c2cccs2)cc1", "activity change, negative = inhibition": "inactive"}
{"smiles": "NC(=O)C(=O)N/N=C1\\CCc2ccccc21", "activity change, negative = inhibition": "inactive"}
{"smiles": "COc1cccc(CNC23CC4CC(CC(C4)C2)C3)c1OCc1ccccc1", "activity change, negative = inhibition": "inactive"}
{"smiles": "CCCCN(CCCC)CCNC(=O)CNC(=O)c1cccs1", "activity change, negative = inhibition": "inactive"}
{"smiles": "CCN(CC)c1ccc(C(=O)N/N=C(\\C)c2cccnc2)cc1", "activity change, negative = inhibition": "inactive"}
{"smiles": "O=C(N/N=C/c1c(O)n(Cc2ccco2)c(=O)[nH]c1=O)c1ccccc1", "activity change, negative = inhibition": "inactive"}
{"smiles": "O=C(NC1CCSc2ccccc21)c1ccc([N+](=O)[O-])cc1", "note": "(centres undefined)", "activity change, negative = inhibition": "inactive"}
{"smiles": "CC(=O)Nc1ccc(/C=N\\NC(=O)CNS(=O)(=O)c2ccc([N+](=O)[O-])cc2)cc1", "activity change, negative = inhibition": "inactive"}
{"smiles": "CCCC(=O)Nc1ccc(NC(=O)c2cccs2)cn1", "activity change, negative = inhibition": "inactive"}
{"smiles": "O=C(NN=C1C2CC3CC1CC(Cl)(C3)C2)c1ccccn1", "activity change, negative = inhibition": "inactive"}
{"smiles": "O=C(Nc1cccnc1)c1cccs1", "activity change, negative = inhibition": "inactive"}
{"smiles": "COc1ccc(CCNc2c3ccccc3nc3ccccc23)cc1OC", "activity change, negative = inhibition": "inactive"}
{"smiles": "CCCc1cc(C(=O)Cc2ccc(C(=O)OCC)o2)c(O)cc1O", "activity change, negative = inhibition": "inactive"}
{"smiles": "COc1c(OC2OC(C(=O)O)C(O)C(O)C2O)cc(O)c2c(=O)cc(-c3ccccc3)oc12", "note": "(centres undefined)", "activity change, negative = inhibition": "inactive"}
{"smiles": "COc1ccc(C[C@@H]2c3cc(O)c(OC)cc3CCN2C)cc1O", "activity change, negative = inhibition": "inactive"}
{"smiles": "O=C(O)COc1ccc(Br)cc1C(c1c(C(=O)O)[nH]c2ccccc12)c1c(C(=O)O)[nH]c2ccccc12", "activity change, negative = inhibition": "inactive"}
{"smiles": "CC(=O)Nc1ccc(/C=N/NC(=O)CNS(=O)(=O)c2ccccc2)cc1", "activity change, negative = inhibition": "inactive"}
{"smiles": "COCCNc1ncnc2nc[nH]c12", "activity change, negative = inhibition": "inactive"}
{"smiles": "Brc1ccc(-c2cn3nc4c(nc3n2)CCCC4)cc1", "activity change, negative = inhibition": "inactive"}
{"smiles": "Cc1ccc2cc(C#N)c(N3CCCN(C(=O)C4CCCO4)CC3)nc2c1C", "note": "(centres undefined)", "activity change, negative = inhibition": "inactive"}
{"smiles": "CCc1ccc(S(=O)(=O)Nc2ccc(O)c3c(=O)cc(-c4ccccc4Cl)oc23)cc1", "activity change, negative = inhibition": "inactive"}
{"smiles": "CNC(=O)c1c(NC(=O)c2nc3ccccc3s2)sc2c1CCC2", "activity change, negative = inhibition": "inactive"}
{"smiles": "Cc1c(N=Cc2cc3c(cc2[N+](=O)[O-])OCO3)cccc1[N+](=O)[O-]", "activity change, negative = inhibition": "inactive"}
{"smiles": "Nc1cc(C(=O)O)c(Oc2ccc(Cl)cc2Cl)cc1C(=O)O", "activity change, negative = inhibition": "inactive"}
{"smiles": "CN(C)CC(O)COc1ccc(C(C)(C)c2ccc(OCC(O)CN(C)C)cc2)cc1", "note": "(centres undefined)", "activity change, negative = inhibition": "inactive"}
{"smiles": "CCOC(=O)C1CSc2[nH]c(=O)sc2C1c1ccccc1", "note": "(centres undefined)", "activity change, negative = inhibition": "inactive"}
{"smiles": "CCN(CC(=O)Nc1ccc(NC(C)=O)cc1)Cc1c(O)ccc2cc(Br)ccc12", "activity change, negative = inhibition": "inactive"}
{"smiles": "Cc1ccc(C(=O)NNc2ncnc3c2cnn3C)cc1", "activity change, negative = inhibition": "inactive"}
{"smiles": "CC(=O)c1cc(NC(=O)c2ccc(C)cc2)c(=O)oc1C", "activity change, negative = inhibition": "inactive"}
{"smiles": "Cc1cc(C(=O)N/N=C/c2ccc(-c3ccc(C)c(Cl)c3)o2)n[nH]1", "activity change, negative = inhibition": "inactive"}
{"smiles": "CC(C)CNC(=O)c1ccccc1Oc1ccccc1", "activity change, negative = inhibition": "inactive"}
{"smiles": "COC(=O)/C(C#N)=C/c1c(-c2ccccc2)nc2n1CCS2", "activity change, negative = inhibition": "inactive"}
{"smiles": "Cc1cccc(C(=O)NNC(=O)c2ccco2)c1O", "activity change, negative = inhibition": "inactive"}
{"smiles": "CC(=O)CCS(=O)(=O)c1ccc(Oc2ccc(S(=O)(=O)CCC(C)=O)cc2)cc1", "activity change, negative = inhibition": "inactive"}
{"smiles": "Oc1c(C=Nc2ccccc2)sc(=S)n1Cc1ccccc1", "activity change, negative = inhibition": "inactive"}
{"smiles": "Cc1ccc2c(c1)c(C1=NC(=S)NC1=O)c(O)n2C", "activity change, negative = inhibition": "inactive"}
{"smiles": "CSc1nsc2nc(=O)c(/C=C3\\C(C)=Nc4ccc(C)cc43)c(N)n12", "activity change, negative = inhibition": "inactive"}
{"smiles": "COc1ccc(CCn2c(=N)c(C(=O)NCC3CCCO3)cc3c(=O)n4cccc(C)c4nc32)cc1", "note": "(centres undefined)", "activity change, negative = inhibition": "inactive"}
{"smiles": "Cc1cccc(C(=O)NNC(=O)c2csc(N3CCOCC3)n2)c1C", "activity change, negative = inhibition": "inactive"}
{"smiles": "Cc1ccc(Nc2nc(-c3ccc(C)cc3)c(CC(=O)O)s2)cc1", "activity change, negative = inhibition": "inactive"}
{"smiles": "CCOC(=O)c1cnc(SCC(=O)NNC(=O)c2ccco2)nc1N", "activity change, negative = inhibition": "inactive"}
{"smiles": "COc1ccc(-c2csc(Nc3ccc(S(N)(=O)=O)cc3)n2)cc1OC", "activity change, negative = inhibition": "inactive"}
{"smiles": "Nc1ccc(Cc2ccc(N)c(C(=O)O)c2)cc1C(=O)O", "activity change, negative = inhibition": "inactive"}
{"smiles": "CC1CN(Cc2c(O)ccc3c2oc(=O)c2ccccc23)CC(C)O1", "note": "(centres undefined)", "activity change, negative = inhibition": "inactive"}
{"smiles": "CCC(=O)NCCc1nc2ccccc2n1Cc1ccccc1", "activity change, negative = inhibition": "inactive"}
{"smiles": "O=c1oc2cc([N+](=O)[O-])ccc2nc1/C=C(\\O)c1cccc(Br)c1", "activity change, negative = inhibition": "inactive"}
{"smiles": "CC(=O)c1c2c3c(c(Br)ccc3n(C)c1=O)C(=O)c1ccccc1-2", "activity change, negative = inhibition": "inactive"}
{"smiles": "CC1(C)NC(=O)NC2(C)NC(=O)NC(C)(C)C12", "note": "(centres undefined)", "activity change, negative = inhibition": "inactive"}
{"smiles": "Cc1ccc(-c2nc(C=Nc3cccc(C)c3)c(O)o2)cc1", "activity change, negative = inhibition": "inactive"}
{"smiles": "COc1c(O)ccc(/C=C(\\C#N)c2nc3ccccc3[nH]2)c1[N+](=O)[O-]", "activity change, negative = inhibition": "inactive"}
{"smiles": "COC(=O)c1cc2c(-c3ccccc3)c(C)c3ccccn3c-2c1C(=O)OC", "activity change, negative = inhibition": "inactive"}
{"smiles": "COc1ccc2c(c1)-c1ccccc1S(=O)(=O)N2C(C)=O", "activity change, negative = inhibition": "inactive"}
{"smiles": "O=C1c2cccc3cccc(c23)C(=O)N1Cc1ccccc1", "activity change, negative = inhibition": "inactive"}
{"smiles": "O=C(O)c1ccccc1N=Nc1c(O)[nH]c2ccc([N+](=O)[O-])cc12", "activity change, negative = inhibition": "inactive"}
{"smiles": "C#CCOCCOCCOCCNc1nc(N2CCN(C(=O)[C@H](CCCCN)n3cc(C(N)CO)nn3)CC2)nc(N2CCN(C(=O)[C@H](CCC(=O)O)n3cc(C(N)CC(C)C)nn3)CC2)n1", "note": "(some centres undefined)", "activity change, negative = inhibition": "inactive"}
{"smiles": "COC(=O)c1cc(NC(=O)c2ccccc2)c(=O)oc1C", "activity change, negative = inhibition": "inactive"}
{"smiles": "O=c1[nH]cnc2c1C(c1ccccc1)c1c(nc[nH]c1=O)O2", "activity change, negative = inhibition": "inactive"}
{"smiles": "COc1ccc(N=C2S/C(=C\\c3ccc(N4CCOCC4)o3)C(=O)N2CCc2c[nH]c3ccccc23)cc1", "activity change, negative = inhibition": "inactive"}
{"smiles": "COc1ccc(NCc2cccnc2)cc1", "activity change, negative = inhibition": "inactive"}
